Where a name gives a salt, the structure may show the parent alone. Read-outs that look alike come from different tables or passages of the source.
Experiments:
food intake in the rat [1] = experiment: anorectic activity, food intake in the rat; format: in vivo; settings: 1 h, food taken during first hour, read-out: ID50 (B), dose inhibiting by 50% the food intake
Method: (§1) The anorectic activity was assessed by the method of the food intake in the rat. Female rats weighing 200 g are used, which were trained for 10 days to eat during a period of 4 hours and selected on the eighth day. At the end of the tenth day, the randomised animals were divided into a "control group" treated by the vehicle alone, and into several "treated groups". Treatment was effected by the intraperitoneal or oral route 30 minutes or 1 hour before presentation of the food and the quantity of food therefor taken during the first hour was then measured.
(§2) the anorectic activity, expressed as oral or intraperitoneal dose inhibiting by 50% the food intake (ID50, B);
(§3) the ratio between the acute toxicity and the anorectic activity which expresses the therapeutic index related to the acute toxocity (A/B).

[2] = anorectic activity, food intake in the rat; format: in vivo; settings: in vivo, read-out: A/B, ratio acute toxicity to anorectic activity (therapeutic index)
Method: as §1, §2, §3

cerebral serotonin [3] = experiment: cerebral rates of serotonin after i.p. or oral administration (Curzon and Green); format: in vivo
Excerpt: Table II hereinbelow summarises the cerebral rates of serotonin, in percentage with respect to the controls, after intraperitoneal or oral administration of four representative compounds of the present invention. The determination of the cerebral rates, according to Curzon and Green (Brit. J. Pharmacol. 39, 653, 1970) was effected one hour and/or two hours after administration. Fenfluramine was used as reference product.

[4] = acute toxicity, LD50 in the rat by oral or intraperitoneal route; settings: in vivo
Excerpt: the acute toxicity, expressed as LD50 in the rat by the oral or intraperitoneal route (A);

[5] = background; cited from earlier work
food intake in the rat [6] = settings: background; cited from earlier work
cerebral serotonin [7] = settings: at doses very close to the anorectic dose; Arch. Intern. Pharmacodyn. Ther. 1967; cited from earlier work
[8] = target: post-synaptic serotonin receptors; experiment: 3H-serotonin binding to rat cortex membranes (Peroutka and Snyder)
Method: The affinity of the compounds of the present invention for the post-synaptic serotinin receptors was determined according to the method of Peroutka and Snyder (Molec. Pharmacol. 1979, 16, 687-699) which consists in incubating rat cortex membranes with a fixed concentration of ^3 H-serotonin in the presence of different concentrations of product. […] Fenfluramine was used as reference compound.

[9] = i.p., 7.5 mg/kg, 2 hrs (fenfluramine: significant P < 0.01)

SMILES | ED50 (food intake in the rat [1]; ip, i.p.) | selectivity ratio ([2]; ip) | cerebral rates of serotonin (cerebral serotonin [3]; [9]) | cerebral rates of serotonin (cerebral serotonin [3]; i.p., 15.0 mg/kg, 2 hrs) | LD50 ([4]; ip) | ED50 (food intake in the rat [1]; oral) | selectivity ratio ([2]; oral) | LD50 ([4]; oral) | other results
Cl.FC(F)(F)c1cccc(C2=CCN(CC3CC3)CC2)c1 [Example 7, 4-(3-trifluoromethylphenyl)-1-cyclopropylmethyl-1,2,3,6-tetrahydropyridine hydrochloride] | 5.5 mg/kg | 24.6 | 123 % with respect to controls | 119 % with respect to controls | 135 mg/kg |  |  |  | cerebral rates of serotonin (cerebral serotonin [3]; i.p., 3.25 mg/kg, 2 hrs): 111 % with respect to controls
CCNC(C)Cc1cccc(C(F)(F)F)c1 (centres unmarked) [fenfluramine, reference compound] | 5.4 mg/kg | 15.8 | 53.1 % with respect to controls |  |  | 4 mg/kg | 25.1 |  | sedative or stimulant action (in words) [5]: instead of being stimulant, has a certain sedative action; anorectic activity (in words) (food intake in the rat [6]): excellent anorectic activity; cerebral rates of serotonin (cerebral serotonin [3]; i.p., 5 mg/kg, 1 hr, significant P < 0.05): 82.9 % with respect to controls; cerebral rates of serotonin (cerebral serotonin [3]; i.p., 7.5 mg/kg, 1 hr, significant P < 0.05): 81.6 % with respect to controls; cerebral rates of serotonin (cerebral serotonin [3]; i.p., 10 mg/kg, 1 hr, significant P < 0.01): 79.0 % with respect to controls; effect on cerebral rates of serotonin (in words) (cerebral serotonin [3]; in vivo): induces a significant reduction of cerebral serotonin; effect on cerebral rates of serotonin (in words) (cerebral serotonin [7]): induces a significant reduction in the cerebral rates of serotonin; IC50 [8]: > 10 µM
CC(=O)CN1CC=C(c2cccc(C(F)(F)F)c2)CC1.Cl [Example 5, 4-(3-trifluoromethylphenyl)-1-acetonyl-1,2,3,6-tetrahydropyridine hydrochloride] | 10.8 mg/kg | 15.3 |  |  | 165 mg/kg |  |  |  | 
Cl.N#CCCCN1CC=C(c2cccc(C(F)(F)F)c2)CC1 [Example 3, 4-(3-trifluoromethylphenyl)-1-(3-cyanopropyl)-1,2,3,6-tetrahydropyridine hydrochloride] | 11.1 mg/kg | 23.3 |  |  | 258 mg/kg | 11.7 mg/kg | 46 | 538 mg/kg | 
CC(=O)CCN1CC=C(c2cccc(C(F)(F)F)c2)CC1.Cl [Example 6, 4-(3-trifluoromethylphenyl)-1-(3-oxobutyl)-1,2,3,6-tetrahydropyridine hydrochloride] | 6.5 mg/kg | 20.6 | 108 % with respect to controls | 116 % with respect to controls | 134 mg/kg | 11.8 mg/kg | 25.3 | 299 mg/kg | cerebral rates of serotonin (cerebral serotonin [3]; i.p., 3.25 mg/kg, 2 hrs): 109 % with respect to controls
N#CCCCCN1CC=C(c2cccc(C(F)(F)F)c2)CC1 [Example 4, 4-(3-trifluoromethylphenyl-1-(4-cyanobutyl)-1,2,3,6-tetrahydropyridine hydrochloride] |  |  |  |  |  | 10.5 mg/kg | 32 | 336 mg/kg | 
Cl.N#CCCN1CC=C(c2cccc(C(F)(F)F)c2)CC1 [Example 2, 4-(3-trifluoromethylphenyl)-1-(2-cyanoethyl)-1,2,3,6-tetrahydropyridine hydrochloride] | 12 mg/kg | 17.1 | 128 % with respect to controls | 146 % with respect to controls | 206 mg/kg | 9.5 mg/kg | 26.7 | 254 mg/kg | cerebral rates of serotonin (cerebral serotonin [3]; i.p., 15.0 mg/kg, 1 hr): 131.0 % with respect to controls; cerebral rates of serotonin (cerebral serotonin [3]; i.p., 30.0 mg/kg, 2 hrs): 146 % with respect to controls
Cl.FC(F)(F)c1cccc(C2=CCN(CCC3CCCCC3)CC2)c1 [Example 10, 4-(3-trifluoromethylphenyl)-1-(2-cyclohexylethyl)-1,2,3,6-tetrahydropyridine hydrochloride] |  |  |  |  |  | 2.6 mg/kg | 188 | 488 mg/kg | cerebral rates of serotonin (cerebral serotonin [3]; oral, 1.25 mg/kg, 2 hrs): 99 % with respect to controls; cerebral rates of serotonin (cerebral serotonin [3]; oral, 2.5 mg/kg, 2 hrs): 95 % with respect to controls; cerebral rates of serotonin (cerebral serotonin [3]; oral, 5 mg/kg, 2 hrs): 101 % with respect to controls
